Experimental data reported in PubChem BioAssay AID2060495 (Molecular Pharmacology Branch, DTP, NCI, 2025).

Tested on: 521955-158-R2-J5-PDC complex spheroid viability
Assay: Anticancer human tumor 521955-158-R2-J5-PDC patient-derived pancreatic carcinoma cell line growth inhibition [GQUAD]
Settings: for IC50: curve of first compound; for viability, T/C: stronger effect = lower value
Summary of the method: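 Multi-cell-type spheroids of tumor cells with HUVEC and mesenchymal stem cells, treated with drug combinations. Concentrations descend in half-log steps from near clinical Cmax, or from 10 microM where Cmax is unknown; viability read-out.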

[1] = second compound 0.0316 µM, first compound 0.0316 µM
[2] = second compound 0.0316 µM, first compound 0.1 µM
[3] = second compound 0.0316 µM, first compound 0.316 µM
[4] = second compound 0.0316 µM, first compound 1 µM
[5] = second compound 0.0316 µM, first compound 3.16 µM
[6] = second compound 0.0316 µM, first compound 10 µM
[7] = second compound 0.1 µM, first compound 0.0316 µM
[8] = second compound 0.1 µM, first compound 0.1 µM
[9] = second compound 0.1 µM, first compound 0.316 µM
[10] = second compound 0.1 µM, first compound 1 µM
[11] = second compound 0.1 µM, first compound 3.16 µM
[12] = second compound 0.1 µM, first compound 10 µM
[13] = second compound 0.316 µM, first compound 0.0316 µM
[14] = second compound 0.316 µM, first compound 0.1 µM
[15] = second compound 0.316 µM, first compound 0.316 µM
[16] = second compound 0.316 µM, first compound 1 µM
[17] = second compound 0.316 µM, first compound 3.16 µM
[18] = second compound 0.316 µM, first compound 10 µM
[19] = second compound 1 µM, first compound 0.0316 µM
[20] = second compound 1 µM, first compound 0.1 µM
[21] = second compound 1 µM, first compound 0.316 µM
[22] = second compound 1 µM, first compound 1 µM
[23] = second compound 1 µM, first compound 3.16 µM
[24] = second compound 1 µM, first compound 10 µM
[25] = second compound 3.16 µM, first compound 0.0316 µM
[26] = second compound 3.16 µM, first compound 0.1 µM
[27] = second compound 3.16 µM, first compound 0.316 µM
[28] = second compound 3.16 µM, first compound 1 µM
[29] = second compound 3.16 µM, first compound 3.16 µM
[30] = second compound 3.16 µM, first compound 10 µM
[31] = second compound 10 µM, first compound 0.0316 µM
[32] = second compound 10 µM, first compound 0.1 µM
[33] = second compound 10 µM, first compound 0.316 µM
[34] = second compound 10 µM, first compound 1 µM
[35] = second compound 10 µM, first compound 3.16 µM
[36] = second compound 10 µM, first compound 10 µM
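Note: spheroids exposed to agents for one week before reading.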
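Throughout, for viability, T/C: 100% = DMSO vehicle control viability.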

**Q.** Which results are given for `O=C(NO)c1cnc(N2CCN(S(=O)(=O)c3ccc4ccccc4c3)CC2)nc1` + CN(C)c1ccc(Nc2c3ccc(NC(=O)CCN4CCCC4)cc3nc3cc(NC(=O)CCN4CCCC4)ccc23)cc1?
**A.** IC50 (second compound 0.0316 µM): 0.703 µM; IC50 (second compound 0.1 µM): 0.668 µM; IC50 (second compound 0.316 µM): 0.491 µM; IC50 (second compound 1 µM): 0.55 µM; IC50 (second compound 3.16 µM): 0.734 µM; IC50 (second compound 10 µM): 0.376 µM; viability, T/C [1]: 127%; viability, T/C [2]: 105%; viability, T/C [3]: 95.3%; viability, T/C [4]: 30.6%; viability, T/C [5]: 0.19%; viability, T/C [6]: 0.15%; viability, T/C [7]: 120%; viability, T/C [8]: 124%; viability, T/C [9]: 94.7%; viability, T/C [10]: 26%; viability, T/C [11]: 0.16%; viability, T/C [12]: 0.1%; viability, T/C [13]: 118%; viability, T/C [14]: 115%; viability, T/C [15]: 58%; viability, T/C [16]: 31.6%; viability, T/C [17]: 0.13%; viability, T/C [18]: 0.12%; viability, T/C [19]: 121%; viability, T/C [20]: 116%; viability, T/C [21]: 60.9%; viability, T/C [22]: 37%; viability, T/C [23]: 0.15%; viability, T/C [24]: 0.12%; viability, T/C [25]: 109%; viability, T/C [26]: 142%; viability, T/C [27]: 87.5%; viability, T/C [28]: 37.7%; viability, T/C [29]: 0.28%; viability, T/C [30]: 0.13%; viability, T/C [31]: 94%; viability, T/C [32]: 94.1%; viability, T/C [33]: 53.7%; viability, T/C [34]: 17.1%; viability, T/C [35]: 0.27%; viability, T/C [36]: 0.21%

**Q.** What does the source list for `COc1cc(C2c3cc4c(cc3C(OC3OC5COC(C)OC5C(O)C3O)C3COC(=O)C23)OCO4)cc(OC)c1O` (stereo not drawn) + Cc1cnc(CNC(=O)c2c(=O)c3ccc(N4CCCN(C)CC4)nc3n3c2sc2ccccc23)cn1?
**A.** IC50 (second compound 0.0316 µM): 0.241 µM; IC50 (second compound 0.1 µM): 0.34 µM; IC50 (second compound 0.316 µM): < 0.0316 µM; IC50 (second compound 1 µM): < 0.0316 µM; IC50 (second compound 3.16 µM): < 0.0316 µM; IC50 (second compound 10 µM): < 0.0316 µM; viability, T/C [1]: 84.4%; viability, T/C [2]: 70.8%; viability, T/C [3]: 42.8%; viability, T/C [4]: 23.2%; viability, T/C [5]: 12.1%; viability, T/C [6]: 9.69%; viability, T/C [7]: 59.2%; viability, T/C [8]: 55.3%; viability, T/C [9]: 49.3%; viability, T/C [10]: 37.8%; viability, T/C [11]: 16%; viability, T/C [12]: 11%; viability, T/C [13]: 45.2%; viability, T/C [14]: 42.2%; viability, T/C [15]: 36.5%; viability, T/C [16]: 19.8%; viability, T/C [17]: 14%; viability, T/C [18]: 12.1%; viability, T/C [19]: 23.2%; viability, T/C [20]: 28.4%; viability, T/C [21]: 19.2%; viability, T/C [22]: 17.4%; viability, T/C [23]: 10.3%; viability, T/C [24]: 10.2%; viability, T/C [25]: 19.2%; viability, T/C [26]: 18%; viability, T/C [27]: 19.6%; viability, T/C [28]: 17%; viability, T/C [29]: 6.27%; viability, T/C [30]: 8.61%; viability, T/C [31]: 15.6%; viability, T/C [32]: 17.8%; viability, T/C [33]: 18.8%; viability, T/C [34]: 16.7%; viability, T/C [35]: 10.2%; viability, T/C [36]: 8.93%

**Q.** Which results are given for `Nc1ccn(C2OC(CO)C(O)C2(F)F)c(=O)n1` (stereo not drawn) + Cc1[nH]c2ccc(F)cc2c1-c1nc2c3cccnc3c3ncccc3c2[nH]1?
**A.** IC50 (second compound 0.0316 µM): 0.421 µM; IC50 (second compound 0.1 µM): 0.424 µM; IC50 (second compound 0.316 µM): 0.436 µM; IC50 (second compound 1 µM): 0.449 µM; IC50 (second compound 3.16 µM): 0.485 µM; IC50 (second compound 10 µM): 0.467 µM; viability, T/C [1]: 78.3%; viability, T/C [2]: 83.1%; viability, T/C [3]: 61.9%; viability, T/C [4]: 13.8%; viability, T/C [5]: 10.5%; viability, T/C [6]: 7.49%; viability, T/C [7]: 77.1%; viability, T/C [8]: 79.2%; viability, T/C [9]: 58.9%; viability, T/C [10]: 22.3%; viability, T/C [11]: 10.8%; viability, T/C [12]: 6.82%; viability, T/C [13]: 89%; viability, T/C [14]: 75.3%; viability, T/C [15]: 64.1%; viability, T/C [16]: 15%; viability, T/C [17]: 10.6%; viability, T/C [18]: 7.06%; viability, T/C [19]: 88.9%; viability, T/C [20]: 80.4%; viability, T/C [21]: 61.6%; viability, T/C [22]: 25.1%; viability, T/C [23]: 9.92%; viability, T/C [24]: 7.24%; viability, T/C [25]: 92.8%; viability, T/C [26]: 93.3%; viability, T/C [27]: 66.4%; viability, T/C [28]: 21.8%; viability, T/C [29]: 12.9%; viability, T/C [30]: 10.2%; viability, T/C [31]: 109%; viability, T/C [32]: 104%; viability, T/C [33]: 61.7%; viability, T/C [34]: 25.3%; viability, T/C [35]: 8.99%; viability, T/C [36]: 7.65%

**Q.** How did the IC50 (second compound 0.0316 µM) turn out when `CCc1c2c(nc3ccc(O)cc13)-c1cc3c(c(=O)n1C2)COC(=O)[C@]3(O)CC` + Cc1cnc(CNC(=O)c2c(=O)c3ccc(N4CCCN(C)CC4)nc3n3c2sc2ccccc23)cn1 was run?
**A.** 0.00104 µM

**Q.** And the IC50 (second compound 0.1 µM)?
**A.** < 0.000999 µM

**Q.** And the IC50 (second compound 0.316 µM)?
**A.** < 0.000999 µM

**Q.** And the IC50 (second compound 1 µM)?
**A.** < 0.000999 µM

**Q.** What about the IC50 (second compound 3.16 µM) of the same molecule?
**A.** < 0.000999 µM

**Q.** And the IC50 (second compound 10 µM)?
**A.** < 0.000999 µM

**Q.** What about the viability, T/C (second compound 0.0316 µM, first compound 0.000999 µM) of the same molecule?
**A.** 51.5%

**Q.** And the viability, T/C (second compound 0.0316 µM, first compound 0.00316 µM)?
**A.** 15.3%

**Q.** And the viability, T/C (second compound 0.0316 µM, first compound 0.00999 µM)?
**A.** 11.1%

**Q.** What about the viability, T/C [1] of the same molecule?
**A.** 6.45%

**Q.** What about the viability, T/C (second compound 0.0316 µM, first compound 0.0999 µM) of the same molecule?
**A.** 6.82%

**Q.** And the viability, T/C [3]?
**A.** 2.28%

**Q.** And the viability, T/C (second compound 0.1 µM, first compound 0.000999 µM)?
**A.** 32.7%

**Q.** And the viability, T/C (second compound 0.1 µM, first compound 0.00316 µM)?
**A.** 18.6%

**Q.** And the viability, T/C (second compound 0.1 µM, first compound 0.00999 µM)?
**A.** 12.7%

**Q.** And the viability, T/C [7]?
**A.** 6%

**Q.** And the viability, T/C (second compound 0.1 µM, first compound 0.0999 µM)?
**A.** 4.68%

**Q.** What about the viability, T/C [9] of the same molecule?
**A.** 1.38%

**Q.** And the viability, T/C (second compound 0.316 µM, first compound 0.000999 µM)?
**A.** 25.2%

**Q.** And the viability, T/C (second compound 0.316 µM, first compound 0.00316 µM)?
**A.** 15.8%

**Q.** What about the viability, T/C (second compound 0.316 µM, first compound 0.00999 µM) of the same molecule?
**A.** 12.8%

**Q.** What about the viability, T/C [13] of the same molecule?
**A.** 5.79%

**Q.** What about the viability, T/C (second compound 0.316 µM, first compound 0.0999 µM) of the same molecule?
**A.** 4.66%

**Q.** And the viability, T/C [15]?
**A.** 0.47%

**Q.** What about the viability, T/C (second compound 1 µM, first compound 0.000999 µM) of the same molecule?
**A.** 17.1%

**Q.** What about the viability, T/C (second compound 1 µM, first compound 0.00316 µM) of the same molecule?
**A.** 13.5%

**Q.** And the viability, T/C (second compound 1 µM, first compound 0.00999 µM)?
**A.** 7.77%

**Q.** What about the viability, T/C [19] of the same molecule?
**A.** 1.4%

**Q.** And the viability, T/C (second compound 1 µM, first compound 0.0999 µM)?
**A.** 0.12%

**Q.** What about the viability, T/C [21] of the same molecule?
**A.** 0.1%

**Q.** What about the viability, T/C (second compound 3.16 µM, first compound 0.000999 µM) of the same molecule?
**A.** 13.7%

**Q.** And the viability, T/C (second compound 3.16 µM, first compound 0.00316 µM)?
**A.** 9.61%

**Q.** What about the viability, T/C (second compound 3.16 µM, first compound 0.00999 µM) of the same molecule?
**A.** 3.83%

**Q.** What about the viability, T/C [25] of the same molecule?
**A.** 0.1%

**Q.** And the viability, T/C (second compound 3.16 µM, first compound 0.0999 µM)?
**A.** 0.1%

**Q.** What about the viability, T/C [27] of the same molecule?
**A.** 0.14%

**Q.** And the viability, T/C (second compound 10 µM, first compound 0.000999 µM)?
**A.** 12%

**Q.** And the viability, T/C (second compound 10 µM, first compound 0.00316 µM)?
**A.** 9.68%

**Q.** And the viability, T/C (second compound 10 µM, first compound 0.00999 µM)?
**A.** 3.64%

**Q.** What about the viability, T/C [31] of the same molecule?
**A.** 0.13%

**Q.** And the viability, T/C (second compound 10 µM, first compound 0.0999 µM)?
**A.** 0.17%

**Q.** And the viability, T/C [33]?
**A.** 0.21%
